Measurements from ChEMBL document CHEMBL1130702, “Novel cytotoxic diterpenes from the stem of Dysoxylum kuskusense” (Bioorg Med Chem Lett, 1998).

Experiments:
Assay type in all cases: functional, cell-based
Conditions in all cases: Homo sapiens
HL-60 [1] = test: Compound was tested for cytotoxicity against HL-60(TB) leukemia tumor cell line
K562 = test: Compound was tested for cytotoxicity against K-562 (leukemia) cell line
HL-60 [2] = test: Compound was tested for cytotoxicity against HL-60 (TB) cell line
NCI-H522 = test: Compound was tested for cytotoxicity against NCI-H522 (lung tumor)cell line

**Q.** With `CC1=CC(=O)C[C@@]2(C)CC[C@@H](C(C)CC(=O)CC(C)C)C[C@@]12OO` (stereo not given in full) as the compound, how does the EC50 (HL-60 [1]) read?
**A.** The EC50 was 2.37 µM.

**Q.** How did the EC50 (HL-60 [1]) turn out when `CC1=CC(=O)C[C@]2(C)CC[C@@H](C(C)CC(=O)CC(C)C)C[C@@]12OO` (stereo not given in full) was run?
**A.** The EC50 was 6.35 µM.

**Q.** Which EC50 (K562) does the source give for `CC1=CC(=O)C[C@]2(C)CC[C@@H](C(C)CC(=O)CC(C)C)C[C@@H]12` (stereo not given in full) here?
**A.** The EC50 was 5.04 µM.

**Q.** What about the EC50 (HL-60 [2]) of the same compound?
**A.** Its EC50 is 2.25 µM.

**Q.** And the EC50 (NCI-H522)?
**A.** Its EC50 is 4.8 µM.
